From patent US20230044979A1, “ANIMAL CELL CULTURING METHOD” (AJINOMOTO CO., INC., priority 2020, published 2023) come the findings set out here.

In data set [1] the test system is CHO cells modified to produce a monoclonal antibody. In words: Effect of addition of L-cysteine derivatives to basal medium on proliferation of CHO cells. In kind it is cell-based, Chinese hamster. To be noted: for use as an alternative for L-cysteine in the basal medium: 1.3 mM in basal medium; for proliferation of cells (viable cell count): 1.3 mM in basal medium otherwise without L-cysteine, day 7 of culture, FIG. 1. Here is the method:
In this Example, an effect of addition of L-cysteine derivatives to a basal medium on proliferation of CHO cells was evaluated. As the L-cysteine derivatives, (2RS,4R)-2-methyl-2,4-thiazolidinedicarboxylic acid 2-ethyl ester (hereinafter, also referred to as “Compound 1”) and (2RS,4R)-2-methyl-2,4-thiazolidinedicarboxylic acid (hereinafter, also referred to as “Compound 2”) were used. As the CHO cells, CHO cells modified to produce a monoclonal antibody were used.
CELLiST (registered trademark) Basal media (Ajinomoto Co., Ltd.: BASAL3) without L-cysteine was prepared, to obtain a culture medium without addition of L-cysteine. The culture medium without addition of L-cysteine was added with L-cysteine, Compound 1, or Compound 2, to prepare a culture medium containing 1.3 mM L-cysteine, 1.3 mM Compound 1, or 1.3 mM Compound 2. Each culture medium was added with LR3-IGF-1 (SIGMA-ALDRICH: I1271-1MG, final concentration of 50 μg/mL) and L-Glutamine (Thermo Fisher SCIENTIFIC: 25030081, final concentration of 6 mM), to prepare a basal medium.
A 3 mL-aliquot of a CHO cell suspension adjusted to 3×10^5 cells/mL using the prepared basal medium was seeded into a 6 well plate (CORNING: 3471), and cultured for 11 days. The culture was carried out with n=3 for all experimental groups. The culture temperature was 37° C. and the agitation speed was 110 rpm. A cell culture broth was sampled on days 7 and 11 from the start of the culture, and the viable cell count was measured using a viable/dead cells autoanalyzer Vi-CELL™ XR (Beckman Coulter).

Data set [2] has the same test system. In words: Effect of addition of L-cysteine derivatives to feed medium on proliferation of CHO cells and antibody production (1). In kind it is cell-based, Chinese hamster. To be noted: for antibody production amount: 14.5, 29 or 58 mM in feed medium, fed on days 4, 7, 9, 11, 14 days culture, FIG. 3. The protocol: In this Example, an effect of addition of L-cysteine derivatives to a feed medium on proliferation of CHO cells and antibody production was evaluated. As the L-cysteine derivatives, Compounds 1 and 2 were used. As the CHO cells, CHO cells modified to produce a monoclonal antibody were used.
CELLiST (registered trademark) Basal media (Ajinomoto Co., Ltd.: BASAL3; containing 1.3 mM L-cysteine) was added with LR3-IGF-1 (SIGMA-ALDRICH: I1271-1MG, final concentration of 50 μg/mL) and L-Glutamine (Thermo Fisher SCIENTIFIC: 25030081, final concentration of 6 mM), to prepare a basal medium.
Feed media (9 kinds in total) each containing 82 g/L Cellvento (registered trademark) Feed-210 (Merck: 1.02488.0005), 70 g/L glucose (Wako Pure Chemical Industries, Ltd.: 043-31163), and L-cysteine, Compound 1, or Compound 2 each at 14.5 mM, 29 mM, or 58 mM were prepared. In addition, a feed medium without addition of L-cysteine, which only contained 82 g/L Cellvento (registered trademark) Feed-210 and 70 g/L glucose, was prepared. Separately, a tyrosine concentrate (L-tyrosine disodium salt dihydrate (Merck: 122666-87-9) 149.64 g/L, pH 11.3) was prepared.
A 30 mL-aliquot of a CHO cell suspension adjusted to 3×10^5 cells/mL using the prepared basal medium was seeded into 125 mL-volume flasks (CORNING: 431143), and cultured for 14 days. The culture was carried out with n=2 for all experimental groups. The culture temperature was 37° C. and the agitation speed was 110 rpm. A 1.8 mL-aliquot of each of the prepared feed media and a 60 μL-aliquot of the tyrosine concentrate were added on days 4, 7, 9, and 11 from the start of the culture. A cell culture broth was sampled on days 4, 7, 9, 11, and 14 from the start of the culture, and the viable cell count was measured using a viable/dead cells autoanalyzer Vi-CELL™ XR (Beckman Coulter), and the antibody production amount was measured using Octet QK (FORTEBIO).

Data set [3] in a line: Stability of L-cysteine derivatives in buffer solution (crystal precipitation by visual observation). In kind it is physicochemical. To be noted: 58 mM in PBS buffer pH 7.0 to 7.2; for crystal precipitation, Days 0 / crystal precipitation, Days 3 / crystal precipitation, Days 7 / crystal precipitation, Days 14 / crystal precipitation, Days 21 / crystal precipitation, Days 24: stored at 5° C. in the dark; for crystal precipitation, Days 0: day 0; for crystal precipitation, Days 3: day 3; for crystal precipitation, Days 7: day 7; for crystal precipitation, Days 14: day 14; for crystal precipitation, Days 21: day 21; for crystal precipitation, Days 24: day 24. Here is the method:
In this Example, the stability of L-cysteine derivatives in a buffer solution was evaluated.
In the table, “+” to “++++” indicate that crystal precipitation was observed, and the higher the number of “+”, the greater the degree of precipitation.

A short description of data set [4]: Stability of L-cysteine derivatives in feed medium (crystal precipitation by visual observation). To be noted: for crystal precipitation, Days 0 / crystal precipitation, Days 1 / crystal precipitation, Days 7 / crystal precipitation, Days 22 / crystal precipitation, Days 30: stored at 5° C. in the dark; for crystal precipitation, Days 0: day 0; for crystal precipitation, Days 1: day 1; for crystal precipitation, Days 7: day 7; for crystal precipitation, Days 22: day 22; for crystal precipitation, Days 30: day 30. In kind it is physicochemical. The protocol:
In this Example, the stability of L-cysteine derivatives in a feed medium was evaluated. As the L-cysteine derivatives, Compounds 1 and 2 were used.
A feed medium containing 82 g/L Cellvento (registered trademark) Feed-210 (Merck: 1.02488.0005), 70 g/L glucose (Wako Pure Chemical Industries, Ltd.: 043-31163), and 58 mM L-cysteine, 58 mM Compound 1, or 58 mM Compound 2, and a feed medium without addition of L-cysteine, which only contained 82 g/L Cellvento (registered trademark) Feed-210 and 70 g/L glucose were prepared at pH 5.2 to 5.6, which are described in the instruction of Feed-210, and at pH 7.0, which is a neutral pH condition used for usual cultivation, to obtain 8 kinds of feed media in total. All of the feed media were prepared as transparent solutions.
After each of the feed media was stored at 5° C. in the dark, crystal precipitation was confirmed by visual observation. […] In the table, “+” to “++++” indicate that crystal precipitation was observed, and the higher the number of “+”, the greater the degree of precipitation. Under the addition condition, significant precipitation was observed from one week after the start of storage. Under the condition of adding Compound 2, precipitation was observed from 22 days after the start of storage.

Where [5] appears, read: 58 mM in feed medium pH 5.2 to 5.6.
Where [6] appears, read: 58 mM in feed medium, 5° C. in the dark.

On to `CC1(C(=O)O)N[C@H](C(=O)O)CS1` (mixture of isomers) [Compound 2, (2RS,4R)-2-methyl-2,4-thiazolidinedicarboxylic acid], for which, in data set [1], the “use as an alternative for L-cysteine in the basal medium” value is “able to be used as an alternative for L-cysteine” and the “proliferation of cells (viable cell count)” value (shortened to “proliferation of cells”) is given as “almost equivalent to that of the experimental group using L-cysteine”. For the same compound, the antibody production amount entry in data set [2] is on record as “almost equivalent to that of the experimental group of L-cysteine”. Besides, in data set [3] (5° C. in the dark), the “relative stability compared with L-cysteine” value is listed as “more stable than L-cysteine”. Also, in data set [3], the “crystal precipitation, Days 0” value is “−”; the “crystal precipitation, Days 3” value is recorded as “−”; the “crystal precipitation, Days 7” value is “−”; the “crystal precipitation, Days 14” value was “−”. Moreover, in data set [3], the “crystal precipitation, Days 21” value is recorded as “−” and the “crystal precipitation, Days 24” value is recorded as “−”. In addition, in data set [4] (setting [5]), the “crystal precipitation, Days 0” value is “−”; the “crystal precipitation, Days 1” value was “−”; the “crystal precipitation, Days 7” value was “−”; the “crystal precipitation, Days 22” value is recorded as “+”. Also, the “crystal precipitation, Days 30” value in data set [4] (setting [5]) is “+++”. Moreover, in data set [4] (58 mM in feed medium pH 7), the “crystal precipitation, Days 0” value is reported as “−”; the “crystal precipitation, Days 1” value is “−”; the “crystal precipitation, Days 7” value is given as “−”; the “crystal precipitation, Days 22” value was “++”. Further, in data set [4] (58 mM in feed medium pH 7), the “crystal precipitation, Days 30” value was “+++”. Further, in data set [4] (setting [6]), the “precipitation observed from (after the start of storage)” value turned out to be 22 days.

Regarding `CCOC(=O)C1(C)N[C@H](C(=O)O)CS1` (mixture of isomers) [Compound 1, (2RS,4R)-2-methyl-2,4-thiazolidinedicarboxylic acid 2-ethyl ester], in data set [1], the “use as an alternative for L-cysteine in the basal medium” value is “unable to substitute the whole of L-cysteine in the basal medium” and the “proliferation of cells” value is listed as “no proliferation of cells was observed”. For the same compound, in data set [2], the antibody production amount result is recorded as “almost equivalent to that of the experimental group of L-cysteine”. Further, the “use as an alternative for L-cysteine in the feed medium” value in data set [2] (in feed medium, basal medium containing 1.3 mM L-cysteine) is recorded as “able to be used as an alternative for L-cysteine in the feed medium”. Also, the “relative stability compared with L-cysteine” value in data set [3] (5° C. in the dark) is listed as “more stable than L-cysteine”. For the same compound, in data set [3], the “crystal precipitation, Days 0” value is given as “−”; the “crystal precipitation, Days 3” value was “−”; the “crystal precipitation, Days 7” value is given as “−”; the “crystal precipitation, Days 14” value is “−”. Further, in data set [3], the “crystal precipitation, Days 21” value is given as “−” and the “crystal precipitation, Days 24” value is recorded as “−”. Also, in data set [4] (setting [5]), the “crystal precipitation, Days 0” value is “−”; the “crystal precipitation, Days 1” value is reported as “−”; the “crystal precipitation, Days 7” value is listed as “−”; the “crystal precipitation, Days 22” value is given as “−”. Moreover, the “crystal precipitation, Days 30” value in data set [4] (setting [5]) is recorded as “−”. For the same compound, in data set [4] (58 mM in feed medium pH 7), the “crystal precipitation, Days 0” value is “−”; the “crystal precipitation, Days 1” value was “−”; the “crystal precipitation, Days 7” value was “−”; the “crystal precipitation, Days 22” value is recorded as “−”. Besides, the “crystal precipitation, Days 30” value in data set [4] (58 mM in feed medium pH 7) is recorded as “−”. For the same compound, the “relative stability in the culture medium” value in data set [4] (setting [6]) is given as “more stable than Compound 2”. Also, the “crystal precipitation on storage, in words” value in data set [4] (58 mM in feed medium, 5° C. in the dark, up to 30 days after the start of storage) is listed as “no crystal precipitation was observed”.

As for `Cl.N[C@@H](CS)C(=O)O.O` [L-cysteine, L-cysteine hydrochloride monohydrate], in data set [1], the “proliferation of cells” value was “Proliferation of cells was observed”. In addition, the “significant precipitation observed from (after the start of storage)” value in data set [3] (5° C. in the dark) is recorded as 3 days. In data set [3], the “crystal precipitation, Days 0” value was “−”; the “crystal precipitation, Days 3” value is recorded as “++”; the “crystal precipitation, Days 7” value is given as “+++”; the “crystal precipitation, Days 14” value was “+++”. Also, in data set [3], the “crystal precipitation, Days 21” value is recorded as “+++” and the “crystal precipitation, Days 24” value is on record as “+++”. Also, in data set [4] (setting [5]), the “crystal precipitation, Days 0” value is listed as “−”; the “crystal precipitation, Days 1” value is reported as “−”; the “crystal precipitation, Days 7” value was “+++”; the “crystal precipitation, Days 22” value is recorded as “+++”. Besides, the “crystal precipitation, Days 30” value in data set [4] (setting [5]) is “+++”. Besides, in data set [4] (58 mM in feed medium pH 7), the “crystal precipitation, Days 0” value is on record as “−”; the “crystal precipitation, Days 1” value is recorded as “−”; the “crystal precipitation, Days 7” value is “+++”; the “crystal precipitation, Days 22” value is reported as “+++”. In addition, the “crystal precipitation, Days 30” value in data set [4] (58 mM in feed medium pH 7) was “+++”.
